Reference: patent US7507730B2, “Substituted pyrazolo[1,5-a]pyrimidines as potassium channel activators” (Bristol-Myers Squibb Company, priority 2005, dated 2009)
Where two headings read alike, the source gives them in different places.

Molecular target: Kv1.5 (Homo sapiens, UniProt P22460)
Assay: Kv1.5 inhibition assay (IKur inhibitor assay per cited references)
Format: cell-based
Details: for inhibition at 0.3 µM / Kv1.5% inhibition: at 0.3 μM
From the text: Assays to determine the degree of activity of a compound as an IKur inhibitor are well known in the art and are described in references such as J. Gen. Physiol. Apr.; 101 (4):513-43, and Br. J. Pharmacol. 1995 May; 115(2):267-74.

[1] = given as % inhibition, value given as a concentration in μM, read-out: Kv1.5% inhibition

Sequence of Kv1.5 (P22460 whole entry): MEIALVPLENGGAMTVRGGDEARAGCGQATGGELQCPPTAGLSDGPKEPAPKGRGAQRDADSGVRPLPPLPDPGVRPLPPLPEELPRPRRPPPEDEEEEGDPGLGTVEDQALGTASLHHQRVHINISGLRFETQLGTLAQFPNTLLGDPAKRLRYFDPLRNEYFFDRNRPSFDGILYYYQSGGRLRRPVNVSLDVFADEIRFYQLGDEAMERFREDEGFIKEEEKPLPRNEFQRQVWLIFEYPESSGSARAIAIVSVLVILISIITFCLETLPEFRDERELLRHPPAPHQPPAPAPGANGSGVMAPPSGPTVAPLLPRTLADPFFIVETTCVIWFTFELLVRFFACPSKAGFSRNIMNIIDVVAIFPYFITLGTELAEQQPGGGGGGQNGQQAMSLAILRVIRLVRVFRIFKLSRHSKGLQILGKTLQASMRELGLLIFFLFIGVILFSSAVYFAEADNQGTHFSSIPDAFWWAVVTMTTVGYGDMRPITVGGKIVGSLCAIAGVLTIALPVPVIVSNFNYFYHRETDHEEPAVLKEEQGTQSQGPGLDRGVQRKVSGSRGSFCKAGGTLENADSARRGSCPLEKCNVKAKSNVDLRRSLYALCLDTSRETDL

`CC1=C(S(=O)(=O)c2ccc(Cl)cc2)C(c2cncnc2)n2nc(C(F)(F)F)cc2N1` (single isomer, unassigned) [Example 50 Isomer 1, 6-(4-Chlorophenylsulfonyl)-5-methyl-7-(pyrimidin-5-yl)-2-(trifluoromethyl)-4,7-dihydropyrazolo[1,5-a]pyrimidine] gave an inhibition at 0.3 µM of 15.1%.
For `COc1ccc(S(=O)(=O)C2=C(C)Nc3cc(C(F)(F)F)nn3C2c2ccc(Cl)cc2)cc1` (single isomer, unassigned) [Example 25 Isomer 2, 7-(4-Chlorophenyl)-6-(4-methoxyphenylsulfonyl)-5-methyl-2-(trifluoromethyl)-4,7-dihydropyrazolo[1,5-a]pyrimidine], the Kv1.5% inhibition was 82.9%.
For `COc1ccc(S(=O)(=O)C2=C(C)Nc3cc(C)nn3C2c2ccc(C)c(F)c2)cc1` (single isomer, unassigned) [Example 24 Isomer 2, 7-(3-Fluoro-4-methylphenyl)-6-(4-methoxyphenylsulfonyl)-2,5-dimethyl-4,7-dihydropyrazolo[1,5-a]pyrimidine], the IC50 (read-out: Kv1.5 IC50) was 0.322 µM.
In the case of `COc1ccc(S(=O)(=O)C2=C(C)Nc3cc(C(F)(F)F)nn3C2c2ccc(C)c(F)c2)cc1` (single isomer, unassigned) [Example 32 Isomer 1, 7-(3-Fluoro-4-methylphenyl)-6-(4-methoxyphenylsulfonyl)-5-methyl-2-(trifluoromethyl)-4,7-dihydropyrazolo[1,5-a]pyrimidine], the inhibition at 0.3 µM is reported as 81.8%.
With `CCN(CC)S(=O)(=O)C1=C(C)Nc2cc(C)nn2C1c1ccc(Cl)c(Cl)c1` (single isomer, unassigned) [Example 61 Isomer 1, 7-(3,4-Dichlorophenyl)-N,N-diethyl-2,5-dimethyl-4,7-dihydropyrazolo[1,5-a]pyrimidine-6-sulfonamide] the Kv1.5% inhibition was 90.5%.
For `CC1=C(C(=O)N2CCN(C)S2(=O)=O)C(c2ccc(Cl)c(Cl)c2)n2nc(C)cc2N1` (racemic) [Example 83], the inhibition at 0.3 µM was 40%.
With `CC1=C(S(=O)(=O)c2ccc(Cl)cc2)C(c2ccc(F)cc2)n2nc(C(F)(F)F)cc2N1` (single isomer, unassigned) [Example 43 Isomer 2, 6-(4-Chlorophenylsulfonyl)-7-(4-fluorophenyl)-5-methyl-2-(trifluoromethyl)-4,7-dihydropyrazolo[1,5-a]pyrimidine] the Kv1.5% inhibition was 87.3%.
Work on `COc1cccc(S(=O)(=O)C2=C(C)Nc3cc(C(F)(F)F)nn3C2c2ccc(Cl)c(Cl)c2)c1` (single isomer, unassigned) [Example 39 Isomer 1, 7-(3,4-Dichlorophenyl)-6-(3-methoxyphenylsulfonyl)-5-methyl-2-(trifluoromethyl)-4,7-dihydropyrazolo[1,5-a]pyrimidine] yielded an inhibition at 0.3 µM of 78.6%.
`CC1=C(C(=O)N(C)S(=O)(=O)c2ccccc2)C(c2ccc(Cl)c(Cl)c2)n2nc(C)cc2N1` (racemic) [Example 78, 7-(3,4-Dichlorophenyl)-N,2,5-trimethyl-N-(phenylsulfonyl)-4,7-dihydropyrazolo[1,5-a]pyrimidine-6-carboxamide] showed an IC50 [1] of 0.164 µM.
`CCCCS(=O)(=O)NC(=O)C1=C(C)Nc2cc(C(F)(F)F)nn2C1c1ccc(Cl)c(Cl)c1` (racemic) [Example 85, N-(Butylsulfonyl)-7-(3,4-dichlorophenyl)-5-methyl-2-(trifluoromethyl)-4,7-dihydropyrazolo[1,5-a]pyrimidine-6-carboxamide] showed an inhibition at 0.3 µM of 11%.
`CC1=C(S(=O)(=O)NCc2ccccc2)C(c2ccc(Cl)cc2)n2nc(C)cc2N1` (single isomer, unassigned) [Example 55 Isomer 1, N-Benzyl-7-(4-chlorophenyl)-2,5-dimethyl-4,7-dihydropyrazolo[1,5-a]pyrimidine-6-sulfonamide] showed an inhibition at 0.3 µM of 22.9%.
Work on `CC1=C(C(=O)N(C)S(=O)(=O)C(C)C)C(c2ccc(Cl)c(Cl)c2)n2nc(C(F)(F)F)cc2N1` (racemic) [Example 87, 7-(3,4-Dichlorophenyl)-N-(isopropylsulfonyl)-N,5-dimethyl-2-(trifluoromethyl)-4,7-dihydropyrazolo[1,5-a]pyrimidine-6-carboxamide] yielded an IC50 (read-out: Kv1.5 IC50) of 0.259 µM.
For `CC1=C(S(=O)(=O)c2ccccc2)C(c2ccc(F)cc2)n2nc(C(F)(F)F)cc2N1` (single isomer, unassigned) [Example 36 Isomer 1, 7-(4-Fluorophenyl)-5-methyl-6-(phenylsulfonyl)-2-(trifluoromethyl)-4,7-dihydropyrazolo[1,5-a]pyrimidine], the IC50 (read-out: Kv1.5 IC50) was 0.208 µM.
Molecule `COc1ccc(S(=O)(=O)C2=C(C)Nc3cc(C)nn3C2c2nc3ccccc3n2C)cc1` (single isomer, unassigned) [Example 23 Isomer 1, 6-(4-Methoxyphenylsulfonyl)-2,5-dimethyl-7-(1-methyl-1H-benzo[d]imidazol-2-yl)-4,7-dihydropyrazolo[1,5-a]pyrimidine] has a Kv1.5% inhibition of 6.5%.
Molecule `CC1=C(S(=O)(=O)c2ccccc2)C(c2ccc(F)c(C)c2)n2nc(C(F)(F)F)cc2N1` (racemic) [Example 22, 7-(4-Fluoro-3-methylphenyl)-5-methyl-6-(phenylsulfonyl)-2-(trifluoromethyl)-4,7-dihydropyrazolo[1,5-a]pyrimidine] has an inhibition at 0.3 µM of 30.7%.
For `COc1ccc(S(=O)(=O)C2=C(CO)Nc3cc(C(F)(F)F)nn3C2c2ccc(Cl)cc2)cc1` (single isomer, unassigned) [Example 49 Isomer 2, (7-(4-Chlorophenyl)-6-(4-methoxyphenylsulfonyl)-2-(trifluoromethyl)-4,7-dihydropyrazolo[1,5-a]pyrimidin-5-yl)methanol], the Kv1.5% inhibition was 71.2%.
`CC1=C(S(=O)(=O)c2ccc(C)cc2)C(c2ccc(Cl)c(Cl)c2)n2nc(C)cc2N1` (single isomer, unassigned) [Example 5 Isomer 2, 7-(3,4-Dichlorophenyl)-2,5-dimethyl-6-tosyl-4,7-dihydropyrazolo[1,5-a]pyrimidine] showed an IC50 (read-out: Kv1.5 IC50) of 0.131 µM.
`CC1=C(S(=O)(=O)c2ccc(C(F)(F)F)cc2)C(c2ccc(Cl)c(Cl)c2)n2nc(C)cc2N1` (single isomer, unassigned) [Example 9 Isomer 2, 7-(3,4-Dichlorophenyl)-2,5-dimethyl-6-(4-(trifluoromethyl)phenylsulfonyl)-4,7-dihydropyrazolo[1,5-a]pyrimidine] showed an inhibition at 0.3 µM of 59.7%.
`COc1ccccc1S(=O)(=O)C1=C(C)Nc2cc(C(F)(F)F)nn2C1c1ccc(Cl)cc1` (single isomer, unassigned) [Example 46 Isomer 2, 7-(4-Chlorophenyl)-6-(2-methoxyphenylsulfonyl)-5-methyl-2-(trifluoromethyl)-4,7-dihydropyrazolo[1,5-a]pyrimidine] gave a Kv1.5% inhibition of 74.7%.
In the case of `COc1ccccc1S(=O)(=O)C1=C(C)Nc2cc(C(F)(F)F)nn2C1c1ccc(Cl)cc1` (single isomer, unassigned) [Example 46 Isomer 1, 7-(4-Chlorophenyl)-6-(2-methoxyphenylsulfonyl)-5-methyl-2-(trifluoromethyl)-4,7-dihydropyrazolo[1,5-a]pyrimidine], the inhibition at 0.3 µM is reported as 78.1%.
For `CC1=C(S(=O)(=O)c2ccc(Cl)cc2)C(c2ccc(Cl)cc2)n2nc(C(F)(F)F)cc2N1` (single isomer, unassigned) [Example 31 Isomer 1, 7-(4-Chlorophenyl)-6-(4-chlorophenylsulfonyl)-5-methyl-2-(trifluoromethyl)-4,7-dihydropyrazolo[1,5-a]pyrimidine], the inhibition at 0.3 µM was 82.7%.
`CC1=C(S(=O)(=O)c2ccccn2)C(c2ccc(Cl)cc2)n2nc(C(F)(F)F)cc2N1` (single isomer, unassigned) [Example 47 Isomer 2, 7-(4-Chlorophenyl)-5-methyl-6-(pyridin-2-ylsulfonyl)-2-(trifluoromethyl)-4,7-dihydropyrazolo[1,5-a]pyrimidine] showed an inhibition at 0.3 µM of 75.8%.
For `COc1ccc(S(=O)(=O)N(C)C(=O)C2=C(C)Nc3cc(C)nn3C2c2ccc(Cl)c(Cl)c2)cc1` (single isomer, unassigned) [Example 81 Isomer 2, 7-(3,4-Dichlorophenyl)-N-(4-methoxyphenylsulfonyl)-N,2,5-trimethyl-4,7-dihydropyrazolo[1,5-a]pyrimidine-6-carboxamide], the IC50 [1] was 0.098 µM.
With `CC1=C(S(=O)(=O)c2ccccc2)C(c2ccc(F)cc2)n2nc(C(F)(F)F)cc2N1` (single isomer, unassigned) [Example 36 Isomer 2, 7-(4-Fluorophenyl)-5-methyl-6-(phenylsulfonyl)-2-(trifluoromethyl)-4,7-dihydropyrazolo[1,5-a]pyrimidine] the inhibition at 0.3 µM was 49%.
`CC1=C(S(=O)(=O)c2ccccc2)C(c2ccc3c(c2)OCO3)n2nc(C)cc2N1` (racemic) [Example 6, 7-(Benzo[d][1,3]dioxol-5-yl)-2,5-dimethyl-6-(phenylsulfonyl)-4,7-dihydropyrazolo[1,5-a]pyrimidine] showed an inhibition at 0.3 µM of 6.1%.
`CC1=C(S(=O)(=O)c2ccc(F)cc2)C(c2ccc(Cl)cc2)n2nc(C(F)(F)F)cc2N1` (single isomer, unassigned) [Example 27 Isomer 2, 7-(4-Chlorophenyl)-6-(4-fluorophenylsulfonyl)-5-methyl-2-(trifluoromethyl)-4,7-dihydropyrazolo[1,5-a]pyrimidine] gave an IC50 (read-out: Kv1.5 IC50) of 0.092 µM.
`CC1=C(C(=O)N(C)S(=O)(=O)c2ccccc2)C(c2ccc(Cl)c(Cl)c2)n2nc(C)cc2N1` (single isomer, unassigned) [Example 79 Isomer 2, 7-(3,4-Dichlorophenyl)-N,2,5-trimethyl-N-(phenylsulfonyl)-4,7-dihydropyrazolo[1,5-a]pyrimidine-6-carboxamide] gave a Kv1.5% inhibition of 88%.
`CC1=C(S(=O)(=O)NC2CCCCC2)C(c2ccc(Cl)c(Cl)c2)n2nc(C)cc2N1` (single isomer, unassigned) [Example 38 Isomer 2, N-Cyclohexyl-7-(3,4-dichlorophenyl)-2,5-dimethyl-4,7-dihydropyrazolo[1,5-a]pyrimidine-6-sulfonamide] gave an inhibition at 0.3 µM of 27.6%.
